From article PMC10401705, “Imaging Saturation Transfer Difference (STD) NMR: Affinity and Specificity of Protein–Ligand Interactions from a Single NMR Sample” (Journal of the American Chemical Society, 2023)

How the values were obtained:
[1] = molecular target: T1, wheat germ agglutinin (WGA); assay: imaging STD NMR, initial slopes (STD-AF0), Langmuir fit; assay type: binding, Triticum aestivum
T1 construct: gene WGA1

[2] = molecular target: T2, bovine serum albumin (BSA) (Bos taurus, UniProt P02769); assay: as above; assay type: binding
T2 construct: gene ALB
T2 sequence (P02769 25-607): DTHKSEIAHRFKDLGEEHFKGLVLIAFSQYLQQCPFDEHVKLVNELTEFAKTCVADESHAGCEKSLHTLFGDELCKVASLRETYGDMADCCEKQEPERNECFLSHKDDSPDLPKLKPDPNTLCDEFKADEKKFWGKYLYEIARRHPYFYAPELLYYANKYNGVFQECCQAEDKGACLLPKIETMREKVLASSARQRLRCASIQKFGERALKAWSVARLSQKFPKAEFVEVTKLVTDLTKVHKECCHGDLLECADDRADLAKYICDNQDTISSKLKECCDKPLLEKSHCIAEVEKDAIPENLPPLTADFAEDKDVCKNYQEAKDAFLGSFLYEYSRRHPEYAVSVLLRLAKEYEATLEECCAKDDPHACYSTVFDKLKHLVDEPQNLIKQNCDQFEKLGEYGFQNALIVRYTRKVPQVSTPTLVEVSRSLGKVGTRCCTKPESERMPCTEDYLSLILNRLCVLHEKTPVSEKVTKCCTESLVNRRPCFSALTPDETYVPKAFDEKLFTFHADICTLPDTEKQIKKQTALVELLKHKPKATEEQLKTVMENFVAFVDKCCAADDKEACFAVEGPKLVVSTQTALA

Row | Kd [1] [µM] | Kd [2] [µM] | Structure (SMILES)
1 | 2240 ± 180 |  | CC(=O)N[C@H]1C(O)O[C@H](CO)[C@@H](O)[C@@H]1O (some centres unmarked) [GlcNAc]
2 |  | 231 ± 50 | N[C@@H](Cc1c[nH]c2ccccc12)C(=O)O [tryptophan]
